From publication PMC10781750, “Structural basis of antiphage immunity generated by a prokaryotic Argonaute-associated SPARSA system” (Nature Communications, 2024)

Key:
[1] = biological target: T1, SPARSA (GsSir2/pAgo heterodimer) (Geobacter sulfurreducens, UniProt Q74DF6); experiment: cryo-EM structures ([…] A without, […] A with gRNA/tDNA); format: binding; conditions: endogenous NAD+ copurified; bound in Sir2 domain cleft between Rossmann fold and small domain, near N142 and H186; seen without and with gRNA/tDNA
T1 construct: gene GSU1360; full-length GsSir2 and pAgo coexpressed in E. coli BL21(DE3); 6xHis-SPARSA (also His-SUMO version, SUMO cut by TEV); 1:1 heterodimer; with Short prokaryotic Argonaute (Piwi domain-containing protein)
T1 sequence (Q74DF6 1-587): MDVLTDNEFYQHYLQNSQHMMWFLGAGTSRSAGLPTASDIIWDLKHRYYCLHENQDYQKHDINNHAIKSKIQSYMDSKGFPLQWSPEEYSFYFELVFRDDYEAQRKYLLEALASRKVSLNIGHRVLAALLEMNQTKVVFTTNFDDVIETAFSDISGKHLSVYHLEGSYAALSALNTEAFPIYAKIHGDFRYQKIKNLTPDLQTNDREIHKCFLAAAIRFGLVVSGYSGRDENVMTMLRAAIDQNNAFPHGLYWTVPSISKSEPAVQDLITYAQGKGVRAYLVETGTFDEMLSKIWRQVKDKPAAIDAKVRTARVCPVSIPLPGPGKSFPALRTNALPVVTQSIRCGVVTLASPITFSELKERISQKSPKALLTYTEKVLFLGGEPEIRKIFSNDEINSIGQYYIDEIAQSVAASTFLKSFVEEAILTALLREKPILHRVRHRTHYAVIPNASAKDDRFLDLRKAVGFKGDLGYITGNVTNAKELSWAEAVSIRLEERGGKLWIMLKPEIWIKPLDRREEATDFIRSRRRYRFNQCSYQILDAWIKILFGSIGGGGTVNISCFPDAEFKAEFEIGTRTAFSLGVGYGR
T1 sequence (Q74DF5 1-473 partner): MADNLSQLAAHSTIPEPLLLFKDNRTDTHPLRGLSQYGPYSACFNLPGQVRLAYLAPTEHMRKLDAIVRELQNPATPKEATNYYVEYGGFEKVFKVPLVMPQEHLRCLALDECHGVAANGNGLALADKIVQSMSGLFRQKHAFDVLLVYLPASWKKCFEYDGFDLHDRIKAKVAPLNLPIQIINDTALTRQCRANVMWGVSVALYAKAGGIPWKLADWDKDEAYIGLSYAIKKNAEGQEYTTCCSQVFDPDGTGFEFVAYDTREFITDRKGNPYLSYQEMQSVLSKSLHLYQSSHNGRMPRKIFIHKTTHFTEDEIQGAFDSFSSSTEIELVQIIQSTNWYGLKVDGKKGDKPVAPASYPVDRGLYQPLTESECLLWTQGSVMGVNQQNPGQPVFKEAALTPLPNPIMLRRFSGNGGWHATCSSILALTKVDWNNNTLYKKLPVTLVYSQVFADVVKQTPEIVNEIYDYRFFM

[2] = biological target: T1, SPARSA (GsSir2/pAgo heterodimer); experiment: NADase assay, residual NAD+ by NAD/NADH quantitation kit (absorbance […] nm); format: biochemical; conditions: 1 uM SPARSA, 10 uM NAD+, 2 uM gRNA and tDNA (required for activity), 10 mM HEPES pH 7.5, 125 mM KCl, 37 C

With `NC(=O)c1ccc[n+]([C@@H]2O[C@H](COP(=O)([O-])OP(=O)(O)OC[C@H]3O[C@@H](n4cnc5c(N)ncnc54)[C@H](O)[C@@H]3O)[C@@H](O)[C@H]2O)c1` [NAD^+] the “cryo-EM structures (3.6 A without, 3.1 A with gRNA/tDNA)” value [1] was “a density within the crevice near the catalytic residues N142 and H186 was observed” and the “NADase assay, residual NAD+ by NAD/NADH quantitation kit (absorbance 450 nm)” value [2] was “nearly no NAD^+ remained in the wild-type SPARSA”.
